According to article PMC4048267, “Purification and Characterization of a Novel and Robust L-Asparaginase Having Low-Glutaminase Activity from Bacillus licheniformis: In Vitro Evaluation of Anti-Cancerous Properties” (PLoS ONE, 2014):

System: T1, L-asparaginase from Bacillus licheniformis RAM-8
T1 construct: gene L-asparagine amidohydrolase
Conditions: 25 °C; L-asparagine 2 to 20 mM; assay buffer 50 mM Tris-HCl pH 8.6

NC(=O)C[C@H](N)C(=O)O [L-asparagine]
Km: 14 µM
